Laboratory results: patent US20230043863A1, “HETEROAROMATIC DERIVATIVES FOR USE AS REGULATOR, PREPARATION METHOD THEREFOR AND USE THEREOF” (JIANGSU HANSOH PHARMACEUTICAL GROUP CO., LTD., priority 2018, published 2023)

Each compound was assayed on C57BL/6 mouse colitis model induced by DSS (assay: C57BL/6 mouse colitis model induced by DSS, daily disease index). Details: po, 216 h, 10 mg/kg p.o. BID, Day 0-9, vs vehicle group, read-out: reduction ratio of DAI AUC.
Format: in vivo
Procedure: To evaluate the drug efficacy of the embodiment compound on the C57BL/6 mouse colitis model induced by DSS (dextran sulfate sodium).
According to the weight of the animal, BioBook software was used to randomly group the animals on day −1 to ensure that the weight values of each group of animals were similar to reduce deviation, and the grouping and dosing regimen are shown in the following Table.
Drinking water containing DSS: an appropriate amount of DSS powder was dissolved in the autoclaved drinking water to prepare a 2% DSS solution.
On day −1, the animals were equally divided into 12 groups with 10 animals in each group. (Refer to Table 1 for specific grouping scheme)
From 9:00 on day 0 to 9:00 on day 6, the mice in groups 2 to 9 were given 2% DSS aqueous solution for 6 days (from day 0 to day 6), after which the mice were allowed to freely drink normal water for 3 days (from 9:00 on day 6 to before necropsy on day 9). The day of modeling was counted as day 0. The DSS aqueous solution was wrapped in tin foil to protect it from light. The DSS aqueous solution was replaced every 2 days.
The mice in group 1 are allowed to drink normal water freely for 9 days (from 9:00 on day 0 to before necropsy on day 9).
The recording frequency was once a day, and 4 levels were rated according to the following standards:
Bloody stool (0: negative; 4: positive);
Stool score (0: normal; 2: loose stool; 4: diarrhea)
Daily Disease Index (DAI) was obtained by dividing the sum the scores of the above 3 parts by 3. DAI-time (day) curve based on the daily DAI score was plotted, and the peak area (AUC) under the curve was calculated. The reduction ratio of DAI AUC was calculated by comparing the administration group with the vehicle group, with a calculation formula of (DAI AUCadministration group-DAI AUCvehicle)/DAI AUCVehicle×100%

Which change in vivo at 10 mg/kg does the source give for `COc1ccc2c(Nc3cc(C)[nH]n3)nc(N[C@@H]3C[C@H]4CC[C@@H](C3)N4CCC#N)nc2c1` [Embodiment 169, 3-((3-exo)-3-((7-methoxyl-4-((5-methyl-1H-pyrazol-3-yl)amino)quinazolin-2-yl)amino)-8-azabicyclo[3.2.1]oct-8-yl)propionitrile] here?
Its change in vivo at 10 mg/kg is -34.3%.

Which change in vivo at 10 mg/kg does the source give for `Cc1cc(Nc2nc(N[C@@H]3C[C@H]4CCC[C@@H](C3)N4C(=O)c3ccccn3)nc3sccc23)n[nH]1` [Embodiment 260, ((3-exo)-3-((4-((5-methyl-1H-pyrazol-3-yl)amino)thieno[2,3-d]pyrimidin-2-yl)amino)-9-azabicyclo[3.3.1]non-9-yl)(pyridin-2-yl)methanone] here?
The change in vivo at 10 mg/kg was -23.4%.

Which change in vivo at 10 mg/kg does the source give for `Cc1cc(Nc2nc(N[C@@H]3C[C@H]4CC[C@@H](C3)N4CCC#N)nc3ccsc23)n[nH]1` [Embodiment 60, 3-((3-exo)-3-((4-((5-methyl-1H-pyrazol-3-yl)amino)thieno[3,2-d]pyrimidin-2-yl)amino)-8-azabicyclo[3.2.1]oct-8-yl)propionitrile] here?
Its change in vivo at 10 mg/kg is -20.8%.

Which change in vivo at 10 mg/kg does the source give for `Cc1cc(Nc2nc(N[C@@H]3C[C@H]4CCC[C@@H](C3)N4CCC#N)nc3scnc23)n[nH]1` [Embodiment 278, 3-((3-exo)-3-((7-((5-methyl-1H-pyrazol-3-yl)amino)thiazolo[5,4-d]pyrimidin-5-yl)amino)-9-azabicyclo[3.3.1]non-9-yl)propionitrile] here?
Its change in vivo at 10 mg/kg is -34.9%.

`Cc1cc(Nc2nc(N[C@@H]3C[C@H]4CC[C@@H](C3)N4CCC#N)nc3cc(Br)ccc23)n[nH]1` [Embodiment 170, 3-((3-exo)-3-((7-bromine-4-((5-methyl-1H-pyrazol-3-yl)amino)quinazolin-2-yl)amino)-8-azabicyclo[3.2.1]oct-8-yl)propionitrile] was tested. Which change in vivo at 10 mg/kg did it give?
The change in vivo at 10 mg/kg was -27.9%.

`Cc1cc(Nc2nc(N[C@@H]3C[C@H]4CC[C@@H](C3)N4S(=O)(=O)N3CC(C#N)C3)nc3cc(Cl)ccc23)n[nH]1` [Embodiment 214] was tested. Which change in vivo at 10 mg/kg did it give?
The change in vivo at 10 mg/kg was -28.9%.

How did the change in vivo at 10 mg/kg turn out when `Cc1cc(Nc2nc(N[C@@H]3C[C@H]4CCC[C@@H](C3)N4C(=O)CN3CCOCC3)nc3sccc23)n[nH]1` [Embodiment 246, 1-((3-exo)-3-((4-((5-methyl-1H-pyrazol-3-yl)amino)thieno[2,3-d]pyrimidin-2-yl)amino)-9-azabicyclo[3.3.1]non-9-yl)-2-morpholinoethane-1-one] was run?
The change in vivo at 10 mg/kg was -38.6%.

With `CNCC(=O)N1[C@@H]2CCC[C@H]1C[C@H](Nc1nc(Nc3cc(C)[nH]n3)c3ccsc3n1)C2` [Embodiment 247, 1-((3-exo)-3-((4-((5-methyl-1H-pyrazol-3-yl)amino)thieno[2,3-d]pyrimidin-2-yl)amino)-9-azabicyclo[3.3.1]non-9-yl)-2-(methylamino)-ethane-1-one] as the compound, how does the change in vivo at 10 mg/kg read?
The change in vivo at 10 mg/kg was -22.1%.

With `Cc1cc(Nc2nc(N[C@@H]3C[C@H]4CC[C@@H](C3)N4S(=O)(=O)N3CC(C#N)C3)nc3ccccc23)n[nH]1` [Embodiment 213, 1-(((3-exo)-3-((4-((5-methyl-1H-pyrazol-3-yl)amino)quinazolin-2-yl)amino)-8-azabicyclo[3.2.1]oct-8-yl)sulfonyl)azetindin-3-formonitrile] as the compound, how does the change in vivo at 10 mg/kg read?
Its change in vivo at 10 mg/kg is -24.4%.
